Reference: PMC9925730, “Controlled sequential in situ self-assembly and disassembly of a fluorogenic cisplatin prodrug for cancer theranostics” (Nature Communications, 2023)
Several values for one entry are separate records, joined by “and”; a condition that tells them apart may be missing. Identical values can stand only once.

Legend:
[1] = Urine and faeces analysis by ICP-OES (Pt element); type: in vivo, mice; design: Pt in urine / Pt in feces: unit not given beside the values
Experimental: page 47: determined using ELISA kits according to manufacturer 's protocol. Determination of the blood circulation half-life. […], or CDDP (at a dose of 2.25 mg kg-1 Pt) was i.v. injected into healthy female BALB/c nude mice (6-8 weeks old). […] The collected blood was digested with concentrated HNO3 (65-70%, 2 mL) and HCl (36~38%, 1 mL) at 90 °C overnight. The residues were then diluted with 5 mL 2% HNO3 and 5% HCl solution, and the concentrations of Pt element were determined by ICP-OES, which were further applied to calculate the contents of Pt element in the blood. The plot of the percentage of Pt element remained in the blood versus injection time to yield the pharmacokinetic time. Urine and Faeces analysis. […] Urine and faeces were collected at 2 (for 0-2 h), 4 (for 2-4 h), 8 (for 4- 8 h) and 12 h (for […]), which were diluted in methanol and centrifuged at 3,600 × g for 10 min, followed by filtering via a 0.22 μm syringe filter. The solutions were analyzed by HPLC (660 nm detection) to characterize all the mCy-containing compounds. Using the established standard curves for […] Cy-COOH, the amount of each compound in the urine and faeces could be calculated, which were further applied to determine the percentage of them in the urine and faeces. The data were summarized in Supplementary Tables 5-8. […] Urine and faeces were collected and weighed. The urine and faeces were digested with concentrated HNO3 (65~70%) and HCl (36~38%) at 90 °C for 24 h. The solution was diluted to 5 mL 2% HNO3 and 5% HCl solution, and the concentration of Pt element was measured by ICP-OES, which was further applied to calculate the percentage of Pt in corresponding urine and faeces. The data were summarized in Supplementary Tables 9 and 10. 47

[2] = Body weight of mice with orthotopic HepG2/Luc liver tumors; type: in vivo; conditions: individual samples, in g (unit assumed)
[3] = Urine and faeces analysis by ICP-OES (Pt element); type: in vivo, mice; design: Pt in urine / Pt in feces: unit not given beside the values; remark: listed apart in the source
[4] = General design summary of signals and cytotoxicity (Fig. 1a)
Source text: P-CyPt is designed to (1) offer activatable near-infrared (NIR) FL and PA signals for bimodality imaging through ALP-mediated in situ self-assembly and (2) release CDDP for on-demand therapy via GSH-triggered disassembly (Fig. 1a). […] After systemic administration, P-CyPt as a small molecule can extravasate and penetrate deeply into tumor tissues (Fig. 1b). In tumor tissues that are membrane-bound ALP positive, rapid dephosphorylation of P-CyPt by the membrane-bound ALP generates CyPt, switching on NIR FL (λem = 710 nm) and PA signals (λ = 700 nm); moreover, CyPt with increased hydrophobicity is susceptible to self-assembly into Pt(IV) nanoparticles (Pt^IVNPs), which turns on another PA signal (λ = 750 nm) resulting from the aggregation-caused bathochromic shift. The on-site formed Pt^IVNPs can anchor on the cell membranes, which attenuate diffusion, prolong retention, and enhance translocation into cells[32],[33]. Within tumor cells, the abundant endogenous GSH can reduce Pt(IV) into Pt(II), producing negatively charged Cy-COOH that promotes NPs disassembly and accelerates release of CDDP intracellularly. This process dramatically raises intracellular CDDP’s concentration while depletes GSH’s level to effectively kill tumor cells. Moreover, the disassembly of Pt^IVNPs into Cy-COOH further increases NIR FL (called as “ON-ON”) as the aggregation-caused quenching (ACQ) effect is eliminated; however, the PA signal at 750 nm is turned off but the PA signal at 700 nm is kept at “ON” state. The sequential switches in NIR FL and PA bimodal imaging signals can allow P-CyPt to reliably monitor the ALP-triggered in situ self-assembly and GSH-driven disassembly process in vivo, facilitating to guide precise chemotherapy of tumors.

[5] = i.v. 2.25 mg kg-1 Pt, 0-2 h, ICP-OES

SMILES: CC1(C)C(/C=C/C2=C3Oc4cc(OP(=O)(O)O)c(Cl)cc4C=C3CCC2)=[N+](CCCNC(=O)[C@@H](Cc2ccccc2)NC(=O)[C@@H](Cc2ccccc2)NC(=O)CCC(=O)[O][Pt]([NH2])([NH2])([OH])([Cl])[Cl])c2ccccc21 [P-CyPt]
- Percentage of Pt element excreted to the faeces ([1]; 2-4 h): 5.92 ± 0.64%
- Percentage of Pt element excreted to the urine ([1]; 2-4 h): 13.38 ± 1.45%
- Percentage of Pt element excreted to the faeces ([1]; 4-8 h): 16.94 ± 1.87%
- Percentage of Pt element excreted to the urine ([1]; 4-8 h): 9.24 ± 1.49%
- Percentage of Pt element excreted to the urine ([1]; 8-12 h): 3.41 ± 0.84%
- Pt in urine ([1]; Fig.6g, 0-2 h, mean of 3 mice): 15.772
- Pt in urine ([1]; Fig.6g, 0-2 h, single mice): 15.461 and 17.665 and 14.190
- Pt in urine ([1]; Fig.6g, 2-4 h, mean of 3 mice): 13.380
- Pt in urine ([1]; Fig.6g, 2-4 h, single mice): 13.090 and 14.953 and 12.095
- Pt in urine ([1]; Fig.6g, 4-8 h, mean of 3 mice): 9.236
- Pt in urine ([1]; Fig.6g, 4-8 h, single mice): 9.456 and 10.608 and 7.644
- Pt in urine ([1]; Fig.6g, 8-12 h, mean of 3 mice): 3.408
- Pt in feces ([1]; Fig.6h, 0-2 h, mean of 3 mice): 0.386
- Pt in feces ([1]; Fig.6h, 0-2 h, single mice): 0.346 and 0.489 and 0.323
- Pt in feces ([1]; Fig.6h, 2-4 h, mean of 3 mice): 5.927
- Pt in feces ([1]; Fig.6h, 2-4 h, single mice): 5.543 and 6.667 and 5.573
- Pt in feces ([1]; Fig.6h, 4-8 h, mean of 3 mice): 16.944
- Pt in feces ([1]; Fig.6h, 4-8 h, single mice): 16.548 and 18.982 and 15.301
- Pt in feces ([1]; Fig.6h, 8-12 h, mean of 3 mice): 4.404
- Pt accumulatively cleared (urine + faeces) ([1]; during 12 h): ~ 69.4%
- Pt in feces ([1]; feces collected 0-2 h, mouse-1): 0.346
- Pt in feces ([1]; feces collected 0-2 h, mouse-2): 0.489
- Pt in feces ([1]; feces collected 0-2 h, mouse-3): 0.323
- Pt in feces ([1]; feces collected 2-4 h, mouse-1): 5.543
- Pt in feces ([1]; feces collected 2-4 h, mouse-2): 6.667
- Pt in feces ([1]; feces collected 2-4 h, mouse-3): 5.573
- Pt in feces ([1]; feces collected 4-8 h, mouse-1): 16.548
- Pt in feces ([1]; feces collected 4-8 h, mouse-2): 18.982
- Pt in feces ([1]; feces collected 4-8 h, mouse-3): 15.301
- Pt in feces ([1]; feces collected 8-12 h, mouse-1): 4.215
- Pt in feces ([1]; feces collected 8-12 h, mouse-3): 4.002
- Percentage of Pt element excreted to the faeces [1, 5]: 0.38 ± 0.090%
- Percentage of Pt element excreted to the urine [1, 5]: 15.78 ± 1.76%
- Pt in urine, mean ([1]; urine collected 0-2 h, mean of 3 mice): 15.772
- Pt in urine ([1]; urine collected 0-2 h, mouse-1): 15.461
- Pt in urine ([1]; urine collected 0-2 h, mouse-2): 17.665
- Pt in urine ([1]; urine collected 0-2 h, mouse-3): 14.190
- Pt in urine, mean ([1]; urine collected 2-4 h, mean of 3 mice): 13.380
- Pt in urine ([1]; urine collected 2-4 h, mouse-1): 13.090
- Pt in urine ([1]; urine collected 2-4 h, mouse-2): 14.953
- Pt in urine ([1]; urine collected 2-4 h, mouse-3): 12.095
- Pt in urine, mean ([1]; urine collected 4-8 h, mean of 3 mice): 9.236
- Pt in urine ([1]; urine collected 4-8 h, mouse-1): 9.456
- Pt in urine ([1]; urine collected 4-8 h, mouse-2): 10.608
- Pt in urine ([1]; urine collected 4-8 h, mouse-3): 7.644
- Pt in urine, mean ([1]; urine collected 8-12 h, mean of 3 mice): 3.408
- Pt in urine ([1]; urine collected 8-12 h, mouse-1): 3.228
- Pt in urine ([1]; urine collected 8-12 h, mouse-2): 4.327
- Pt in urine ([1]; urine collected 8-12 h, mouse-3): 2.669
- Body weight of mice (Supplementary Fig. 34) ([2]; time 0 d): 18.59 and 19.8 and 19.81
- Body weight of mice (Supplementary Fig. 34) ([2]; time 3 d): 18.83 and 19.54 and 20.74
- Body weight of mice (Supplementary Fig. 34) ([2]; time 6 d): 17.51 and 20.1 and 20.66
- Body weight of mice (Supplementary Fig. 34) ([2]; time 9 d): 18.1 and 20.43 and 20.94
- Body weight of mice (Supplementary Fig. 34) ([2]; time 12 d): 19.14 and 19.19 and 21.74
- Body weight of mice (Supplementary Fig. 34) ([2]; time 15 d): 19.31 and 19.45 and 21.01
- Percentage of Pt element excreted to the faeces ([3]; 8-12 h): 4.40 ± 0.52%
- Pt in urine ([3]; Fig.6g, 8-12 h, single mice): 3.228 and 4.327 and 2.669
- Pt in feces ([3]; Fig.6h, 8-12 h, single mice): 4.215 and 4.995 and 4.002
- Pt in feces ([3]; feces collected 8-12 h, mouse-2): 4.995
- Cytotoxicity [4]: Low
- FL at 710 nm [4]: Low
- PA at 700 nm [4]: Low
- PA at 750 nm [4]: Low
